Data reported in ChEMBL document CHEMBL1201862, “PubChem BioAssay data set” (2004).
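Values below derive from 48-hour exposures of cells grown in 96-well plates, with endpoints linearly interpolated between the two concentrations bracketing the appropriate inhibition level. The concentration for 50% growth inhibition is given as GI50.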 The source made the active and inactive calls. Rule as the data show it: active = GI50 up to about 1.1 µM and inactive = higher.

Legend:
Assay in all cases: NCI tumour cell line growth inhibition, 48 h
HT-29 = test system: HT-29
NCI-H226 = test system: NCI-H226
SK-MEL-2 = test system: SK-MEL-2
HOP-62 = test system: HOP-62
T47D = test system: T47D
ACHN = test system: ACHN
NCI-H460 = test system: NCI-H460
RXF 393 = test system: RXF 393
MDA-MB-231 = test system: MDA-MB-231
TK-10 = test system: TK-10
SNB-75 = test system: SNB-75
MOLT-4 = test system: MOLT-4
HCC 2998 = test system: HCC 2998
OVCAR-4 = test system: OVCAR-4
LOX IMVI = test system: LOX IMVI
OVCAR-5 = test system: OVCAR-5
DU-145 = test system: DU-145
UACC-62 = test system: UACC-62
SF-268 = test system: SF-268
SK-MEL-5 = test system: SK-MEL-5
U-251 = test system: U-251
SK-OV-3 = test system: SK-OV-3
A549 = test system: A549
A498 = test system: A498
SF-539 = test system: SF-539
PC-3 = test system: PC-3
786-0 = test system: 786-0
MDA-N = test system: MDA-N
SW-620 = test system: SW-620
HCT-15 = test system: HCT-15
RPMI-8226 = test system: RPMI-8226
UACC-257 = test system: UACC-257
CAKI-1 = test system: CAKI-1
OVCAR-3 = test system: OVCAR-3
KM12 = test system: KM12
Malme-3M = test system: Malme-3M
Hs-578T = test system: Hs-578T
HL-60 = test system: HL-60
NCI-H522 = test system: NCI-H522
K562 = test system: K562
CCRF-CEM = test system: CCRF-CEM
SF-295 = test system: SF-295
OVCAR-8 = test system: OVCAR-8
SNB-19 = test system: SNB-19
MDA-MB-435 = test system: MDA-MB-435
SK-MEL-28 = test system: SK-MEL-28
IGROV-1 = test system: IGROV-1
MCF7 = test system: MCF7
HCT-116 = test system: HCT-116
EKVX = test system: EKVX
UO-31 = test system: UO-31
SN12C = test system: SN12C
COLO 205 = test system: COLO 205
NCI-H23 = test system: NCI-H23
M14 = test system: M14
SR = test system: SR
NCI/ADR-RES = test system: NCI/ADR-RES
HOP-92 = test system: HOP-92

Measured: GI50

O=C1NC(c2cccc(OCc3ccccc3)c2)Nc2ccccc21 (stereo not given)
0.0805 µM: HCT-15
active: HT-29 0.12 µM | NCI-H226 0.274 µM | HOP-62 0.359 µM | ACHN 0.442 µM | NCI-H460 0.208 µM | RXF 393 0.11 µM | MDA-MB-231 0.251 µM | TK-10 0.603 µM | SNB-75 0.0703 µM | MOLT-4 230 nM | HCC 2998 0.243 µM | LOX IMVI 0.252 µM | OVCAR-5 0.374 µM | DU-145 0.172 µM | UACC-62 0.495 µM | SF-268 0.541 µM | SK-MEL-5 0.0326 µM | U-251 0.232 µM | SK-OV-3 0.307 µM | A549 0.13 µM | A498 0.259 µM | SF-539 201 nM | PC-3 0.162 µM | 786-0 0.286 µM | MDA-N 0.0187 µM | SW-620 0.0938 µM | RPMI-8226 0.0416 µM | CAKI-1 0.628 µM | OVCAR-3 0.1 µM | Malme-3M 89.7 nM | Hs-578T 0.241 µM | HL-60 < 0.0184 µM | NCI-H522 213 nM | K562 0.0189 µM | CCRF-CEM 0.0479 µM | SF-295 0.114 µM | OVCAR-8 0.315 µM | SNB-19 0.324 µM | MDA-MB-435 0.023 µM | SK-MEL-28 0.309 µM | IGROV-1 500 nM | MCF7 0.034 µM | HCT-116 0.0465 µM | EKVX 0.339 µM | SN12C 0.119 µM | COLO 205 0.191 µM | NCI-H23 0.424 µM | M14 0.181 µM | SR < 0.0298 µM | NCI/ADR-RES 0.117 µM
inactive: SK-MEL-2 1.67 µM | T47D 19.1 µM | OVCAR-4 13.7 µM | UACC-257 1.36 µM | KM12 17.5 µM | UO-31 4.55 µM

C=CCOC(OCC=C)/C(Br)=C/C
24 µM: HCT-15
inactive: HT-29 20.2 µM | NCI-H226 > 100 µM | SK-MEL-2 68.2 µM | HOP-62 > 100 µM | T47D 31.8 µM | ACHN 17.6 µM | NCI-H460 67.3 µM | RXF 393 29.2 µM | MDA-MB-231 > 100 µM | TK-10 > 100 µM | SNB-75 > 100 µM | HCC 2998 80.9 µM | OVCAR-4 24.5 µM | LOX IMVI 16.5 µM | OVCAR-5 49.5 µM | DU-145 55.2 µM | UACC-62 64.4 µM | SF-268 28.8 µM | SK-MEL-5 37 µM | U-251 59.2 µM | SK-OV-3 > 100 µM | A549 > 100 µM | A498 > 100 µM | PC-3 93.1 µM | 786-0 11.2 µM | MDA-N 37 µM | SW-620 37.5 µM | RPMI-8226 > 100 µM | UACC-257 > 100 µM | CAKI-1 16.7 µM | OVCAR-3 47.1 µM | KM12 > 100 µM | Hs-578T 26.8 µM | HL-60 41 µM | K562 > 100 µM | CCRF-CEM 10.3 µM | HOP-92 56.5 µM | SF-295 > 100 µM | OVCAR-8 17.7 µM | SNB-19 > 100 µM | MDA-MB-435 26.9 µM | SK-MEL-28 > 100 µM | MCF7 28.3 µM | HCT-116 13.5 µM | EKVX 35.9 µM | UO-31 34.9 µM | SN12C > 100 µM | COLO 205 19.2 µM | NCI-H23 31 µM | M14 32.1 µM | SR > 100 µM | NCI/ADR-RES 31 µM
